How the values were obtained:
PC-3 cells = assay: Biostability: EPR of conditioned media after exposure to cells; format: in vitro ADME; details: after 96 hours of exposure to PC-3 cells vs media without cells
Experimental: PC-3 cells were seeded in tissue culture flasks (surface area ˜80 cm2). The cells were allowed to attach overnight. Following this, the cells were then treated with the desired concentration of CTMIO or DCTEIO (Compound 1) or vehicle (DMSO alone) i.e. 12 mL of media containing different nitroxide or vehicle was added to each flask. 5 mL of conditioned media (i.e. treatment media that had been incubated with the cells) were removed at 24 h and 96 h. At the 96 h time point, cells in the tissue culture flask were ˜100% confluent (i.e. the surface of the flask was covered by a monolayer of cells). The conditioned media that was removed from the flasks was placed in a falcon and centrifuged at 4° C. to remove any cellular debris that might have been present. The supernatant was then transferred to a new tube and the lid parafilmed to make it as airtight as possible. The tubes of conditioned media were stored at −20° C. until Electron Paramagnetic Resonance (EPR) analysis. […] The samples were run at X-band on a Bruker ELEXSYS E 580 FT/CW X-Band spectrometer at room temperature.

[1] = Log P by shake flask method (octanol/water, UV/vis at 230 nm); format: physicochemical
Experimental: The solubility and permeability of CTMIO and DCTEIO (Compound 1) were assessed using the shake flask method and UV/vis spectroscopy to measure distribution of the solute as follows:
A sample of octanol containing DCTEIO (3.34 mg, 1 mM) was added to a separating funnel with 10 mL water. The separating funnel was shaken for 5 minutes and the mixture was allowed to separate for 16 hours. Each phase (0.5 mL) was diluted with 5 mL of like solvent, water phase diluted with water and n-octanol phase diluted with n-octanol. This protocol was repeated for CTMIO. The absorbance of each sample was measured by UV/vis spectroscopy at 230 nm. The Log P value was calculated by the following equation: […]

[2] = tested on: cells affected with Ataxia Telangiectasia (A-T); details: Hosokawa et al. 2004; cited from earlier work
A-T cell line KT = assay: A-T cell survival assay (irradiated cells, Trypan blue count); format: cell-based, human; details: 100 μM nitroxide, at least six hours before irradiation at 4 Gy, counted every 24 hours for 4 days
Experimental: Lymphoblastoid Cell Lines (LCL) of A-T cells and standard cells were used, which were incubated and cultured in the standard conditions. The cell lines of both A-T cells and standard cells were initially divided into four batches, the first batch was not irradiated and not exposed to nitroxide, second batch was irradiated in the absence of nitroxide, the third batch was not irradiated but was exposed to the nitroxide, and the last batch was irradiated in the presence of the nitroxide. All four aliquots were taken from the cultured medium and counted to ensure consistent numbers of cells were present in each aliquot used in the assay. In some experiments comparative experiments were performed with the known nitroxide antioxidant CTMIO. Cells that were treated by the nitroxide studied were exposed for at least six hours prior to the irradiation at the lethal dose of 4 Gy. After dilution, the final concentrations of the nitroxides were made to be 100 μM. Previous experiments have shown that nitroxides generally have minimal toxicity at the concentration of 100 μM, but to confirm this, cell growth was monitored in the presence of the nitroxides but without exposure to irradiation. From this it was evident that there was no significant cytotoxicity with any of the compounds studied.
The concentrations of the cell cultures were monitored every 24 hours after irradiation, for four days. This was conducted via a Trypan blue based assay using a bright-line hemacytometer and an optical microscope. Trypan blue solution enables the discrimination of live cells from dead cells, as the dye is completely absorbed by dead cells, but not by live cells. Under a bright-line hemacytometer, a glass slide specially designed to determine cell concentrations, the blue dead cells fade into the background, enabling the selective count of live cells under an optical microscope. […]
Cell survivability was determined by the ratio of cells irradiated to the cells without irradiation. […] Errors were calculated with 95% confidence intervals. […]

SMILES | EPR signal strength of the nitroxide (metabolic conversion to the non-radical hydroxylamine) (PC-3 cells) | Log P [1] | protective effect on radiation-induced oxidative stress [2] | survival of KT cells in the presence of irradiation (A-T cell line KT) | logP ([1]; n-octanol/water, shake flask, 1 mM)
CC1(C)c2ccc(C(=O)O)cc2C(C)(C)N1[O] [CTMIO, 5-carboxy-1,1,3,3-tetramethyl-isoindolin-2-yloxyl, reference compound] | significant reduction in signal strength | −0.47 | protective effect |  | 
CCC1(CC)c2cc(C(=O)O)c(C(=O)O)cc2C(CC)(CC)N1[O] [Compound (1), 1,1,3,3-Tetraethyl-5,6-dicarboxylisondoline-2-yloxyl] | same signal strength |  |  | improves survival of KT cells | 0.57
CCC1(CC)c2cc(CO)c(CO)cc2C(CC)(CC)N1[O] [Compound (2), 5,6-Dihydroxymethyl-1,1,3,3-tetraethylisoindolin-2-yloxyl] |  |  |  | improves survival of KT cells | 
CCC1(CC)c2cc(CP(=O)(O)O)c(CP(=O)(O)O)cc2C(CC)(CC)N1[O] [Compound (3), 5,6-Bis(methylene)diphosphonic acid-1,1,3,3-tetraethylisoindolin-2-yloxyl] |  |  |  | improves survival of KT cells | 
